Experimental data as given in patent publication US20100028414A1, “COMBINATION OF TYROSINE KINASE INHIBITOR AND HER-2/NEU FOR CANCER THERAPY” (priority 2004, published 2010).

Columns and labels:
[1] = target: T1, total ErbB2 (Homo sapiens, UniProt P04626); assay: Western blot of total ErbB2, BT474 cells; assay type: cell-based; details: lapatinib 0.1 μM, pAb 100 μg/ml, trastuzumab 10 μg/ml, 72 hr, FIG. 12A bottom
T1 construct: whole cell extracts were prepared by scraping cells off petri dishes; host or cells: BT474
T1 sequence (P04626 23-1255): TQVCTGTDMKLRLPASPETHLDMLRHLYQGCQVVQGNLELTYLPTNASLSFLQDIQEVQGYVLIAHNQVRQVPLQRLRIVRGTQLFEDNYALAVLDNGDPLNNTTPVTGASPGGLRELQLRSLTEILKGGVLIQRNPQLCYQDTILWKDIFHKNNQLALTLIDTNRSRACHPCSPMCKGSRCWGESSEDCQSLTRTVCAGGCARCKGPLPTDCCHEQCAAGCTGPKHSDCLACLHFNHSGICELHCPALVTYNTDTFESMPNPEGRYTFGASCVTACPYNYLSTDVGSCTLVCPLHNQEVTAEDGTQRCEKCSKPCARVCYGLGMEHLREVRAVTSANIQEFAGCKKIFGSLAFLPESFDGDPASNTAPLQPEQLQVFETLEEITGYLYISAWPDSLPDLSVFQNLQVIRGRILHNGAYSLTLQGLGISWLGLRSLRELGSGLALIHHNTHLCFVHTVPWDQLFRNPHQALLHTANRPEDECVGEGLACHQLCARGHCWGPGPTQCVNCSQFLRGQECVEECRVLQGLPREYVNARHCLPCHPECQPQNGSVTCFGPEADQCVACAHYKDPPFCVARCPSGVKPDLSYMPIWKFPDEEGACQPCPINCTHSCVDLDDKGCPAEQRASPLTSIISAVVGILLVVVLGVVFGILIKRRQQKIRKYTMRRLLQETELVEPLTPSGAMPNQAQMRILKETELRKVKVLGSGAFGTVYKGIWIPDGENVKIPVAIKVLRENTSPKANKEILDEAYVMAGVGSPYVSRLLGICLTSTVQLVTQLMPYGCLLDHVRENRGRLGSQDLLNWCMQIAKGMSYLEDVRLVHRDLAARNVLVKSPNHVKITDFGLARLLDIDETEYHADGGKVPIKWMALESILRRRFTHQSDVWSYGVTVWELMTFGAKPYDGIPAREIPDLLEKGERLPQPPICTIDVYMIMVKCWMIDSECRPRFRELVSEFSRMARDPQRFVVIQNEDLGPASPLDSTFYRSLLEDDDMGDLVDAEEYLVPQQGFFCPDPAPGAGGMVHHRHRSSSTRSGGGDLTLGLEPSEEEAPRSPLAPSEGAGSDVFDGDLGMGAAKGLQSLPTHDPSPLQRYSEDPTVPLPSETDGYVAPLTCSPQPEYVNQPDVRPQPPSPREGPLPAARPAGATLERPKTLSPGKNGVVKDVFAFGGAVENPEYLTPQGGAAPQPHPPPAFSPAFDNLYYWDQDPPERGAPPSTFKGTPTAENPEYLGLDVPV
Procedure: (§1) To assess the levels of various proteins in cells, whole cell extracts were prepared by scraping cells off petri dishes, washing the cell pellet twice in phosphate buffered saline (PBS), and then resuspending the pellet in two-packed-cell volumes of RIPA buffer(150 mM NaCl, 50 mM Tris-HCl, pH 7.5, 0.25% (w/v) deoxycholate, 1% NP-40, 5 mM sodium orthovanadate, 2 mM sodium fluoride, and a protease inhibitor cocktail). Protein concentrations were determined using a modification of the Bradford method (Bio-Rad Laboratory). […] The immunoprecipitates were separated by 4-15% gradient SDS-polyacrylamide […] gel electrophoresis (SDS-PAGE), and ErbB receptors were detected by Western Blot with anti-ErbB receptor antibodies.
(§2) Steady state levels of Survivin, total ErbB2, phosphorylated ErbB2 (pErbB2 or pTyr), total Erk1/2 , activated Erk1/2 (p-Erk), total pErbB3, activated pErbB3 (pErbB3), total AKT protein and activated Akt (p-Akt) protein were assessed by Western blot. Levels of pErbB2 were assessed using an antibody that bound to multiple tyrosine-phosphorylated forms of ErbB2 (i.e., the antibody was not phosphorylation-site specific). […]
(§3) For Western blot, equal amounts of proteins were resolved by either 7.5% or 4-15% gradient SDS polyacrylamide gel electrophoresis under reducing conditions. […] Efficiency and equal loading of proteins was evaluated by Ponceau S staining. […]

[2] = test system: BT474 human breast cancer cells; assay: In vitro growth inhibition assay ([3H] thymidine incorporation), BT474; assay type: cell-based; details: 0.01 μM Lapatinib, 50 μg/ml pAb, 72 h, FIG. 11A
Procedure: (§4) The antiproliferative effect of vaccine induced anti HER2 polyclonal antibodies (pAb) in combination with Lapatinib was evaluted on human breast cancer cells overexpressing the HER2/neu molecule (BT474 and SKBR3 cells) using the [^3H] thymidine incorporation method. Briefly, 10e4 cells were seeded in 200 μl, in triplicate, in 96-w plates and incubated for 72 h at 37° C. in • 1) medium; • 2) medium containing Lapatinib alone (0.01 μM); • 3) medium containing pAb alone (50 μg/ml); • 4) medium containing pre-immune pAb (TA2021) (50 μg/ml); • 5) a combination of (2) Lapatinib (0.01 μM ) and (3) pAb (50 μg/ml); or • 6) a combination of (2) Lapatinib (0.01 μM ) and (4) pre-immune pAb (TA2021) (50 μg/ml).
(§5) 1 μCi of [^3H] Thymidine (5 Ci/mmol; Amersham) was added for an additional 24 h after which cells were harvested by trypsinisation onto filter plates and the incorporated radioactivity was counted in a beta counter. Results were expressed in cpm and the percentage of growth inhibition was calculated referring to the medium.

[3] = test system: survivin; assay: Western blot of steady state survivin protein, BT474 cells; assay type: cell-based, human; details: lapatinib 0.1 μM, pAb 100 μg/ml, trastuzumab 10 μg/ml, 72 hr, FIG. 12A bottom
Procedure: as §1, §2, §3

[4] = target: T2, phospho-ErbB2 (p-ErbB2) (Homo sapiens, UniProt P04626); assay: Western blot of activated phospho-ErbB2, BT474 cells; assay type: cell-based; details: lapatinib 0.1 μM, pAb 100 μg/ml, trastuzumab 10 μg/ml, 72 hr, FIG. 12A bottom
T2 construct: whole cell extracts were prepared by scraping cells off petri dishes; host or cells: BT474
T2 sequence (P04626 23-1255): as above
Procedure: as §1, §2, §3

[5] = test system: phospho-Erk1/2; assay: Western blot of activated phospho-Erk1/2, BT474 cells; assay type: cell-based, human; details: 72 hr, FIG. 13
Procedure: as §1, §2, §3

[6] = test system: phospho-Akt; assay: Western blot of activated phospho-Akt, BT474 cells; assay type: cell-based, human; details: 72 hr, FIG. 13
Procedure: as §1, §2, §3

[7] = test system: SKBR3 human breast cancer cells; assay: In vitro growth inhibition assay ([3H] thymidine incorporation), SKBR3; assay type: cell-based; details: 0.01 μM Lapatinib, 50 μg/ml pAb, 72 h, FIG. 11B
Procedure: as §4, §5

[8] = test system: BT474 cells; assay: Apoptosis by annexin V staining and flow cytometry, BT474; assay type: cell-based, human; details: lapatinib 0.1 μM, pAb 100 μg/ml, trastuzumab 10 μg/ml, 72 hr, FIG. 12A top
Procedure: After harvesting the cells with trypsin-EDTA, 5000 cells in 50 μl were sampled on 96-well microplates. The cells were stained directly in the microplate with Annexin V-PE and Nexin 7-AAD in 1× Nexin Buffer in a 200 μl final reaction volume. After incubating for 20 minutes at room temperature, the reaction samples were ready to be acquired in the Guava PCA-96-system (Guava Technology, Inc., Hayward, Calif. USA).
7-AAD binds to cellular nuclear material after cellular membranes break down in late apoptosis. Annexin-V staining indicates early apoptotic changes that precede the loss of cellular membrane integrity. Use of Annexin-V in conjunction with 7-amino-actinomycin D (7-AAD) thus can identify both early and late apoptotic cells.
Flow cytometry results were graphed as dot plot results (not shown) with annexin V on the X-axis and 7-AAD on the Y-axis. Low annexin V and low 7-AAD represented viable cells; low annexin V and high 7-AAD indicated nuclear debris; cells with high annexin V staining indicated apoptotic cells.

## CS(=O)(=O)CCNCc1ccc(-c2ccc3ncnc(Nc4ccc(OCc5cccc(F)c5)c(Cl)c4)c3c2)o1 [lapatinib, N-{3-Chloro-4-[(3-fluorobenzyl)oxy]phenyl}-6-[5-({[2-(methanesulphonyl)ethyl]amino}methyl)-2-furyl]-4-quinazolmamine]
[1]
  total ErbB2 protein: without affecting total ErbB2 protein
[2]
  growth inhibition: only modest growth inhibition
[3]
  survivin protein expression: inhibited
[4]
  steady-state levels of activated, phosphorylated ErbB2 protein (pErbB2): inhibited
[5]
  steady state levels of pErk1/2: reduced
[6]
  steady state levels of pAkt: reduced
[7]
  growth inhibition: only modest growth inhibition
[8]
  apoptosis: slight increase in apoptosis
